# Measurements reported in patent publication US20220009914A1, “Analogs of Nitrofuran Antibiotics to Combat Resistance” (The Trustees of Indiana University, priority 2020, published 2022).
# Where two headings read alike, the source gives them in different places.
# How the values were obtained:
# [1] = system: Acinetobacter baumannii strain 2208 (ATCC 19606); assay: bacterial proliferation assay, A. baumannii; type: cell-based; settings: ATCC19606, read-out: Bacterial Proliferation EC50 A. baumannii
# Description: (§1) All compounds were evaluated for inhibiting the proliferation of E. coli and each of the ESKAPE bacteria. Results presented represent the averages of EC50 values obtained from at least four replicates. Evaluating compounds for inhibition of bacterial cell proliferation.
# (§2) Growth Media: E. coli were grown with LB medium and all ESKAPE bacteria were grown in Brain Heart Infusion (BHI) medium (Becton, Dickinson and Company), with all liquid cultures supplemented with 25 mg/L Ca^2+ and 12.5 mg/L Mg^2+ to mimic physiological free concentrations of these cations. A 10 mg/mL Ca^2+ stock solution was prepared by dissolving 1.84 g of CaCl2.2H2O in 50 mL of deionized water, and a 10 mg/mL Mg^2+ stock solution was prepared by dissolving 4.18 g of MgCl2.6H2O in 50 mL deionized water—filter sterilized using 0.2 μm cellulose-acetate filters. 2.5 mL of the sterile 10 mg/mL Ca^2+ stock and 1.25 mL of the sterile 10 mg/mL Mg^2+ stock solutions were added per 1 L of autoclaved LB or BHI media to obtain 25 mg/L Ca^2+ and 12.5 mg/L Mg^2+ ions, respectively.
# (§3) General Assay Protocol: Stock bacterial cultures were streaked onto LB or BHI agar plates and grown overnight at 37° C. Fresh aliquots of cation supplemented media were inoculated with single bacterial colonies and the cultures were grown overnight at 37° C. with shaking (240 rpm). The following morning, cultures were diluted 10-fold into fresh media and grown at 37° C. until bacteria had reached mid-log phase growth (OD600˜0.4-0.6). The cultures were then diluted into fresh media to achieve final OD600 readings of 0.017. Aliquots of these diluted cultures (30 μL) were added to clear, flat-bottom 384-well polystyrene plates that were previously stamped with 0.5 μL of test compounds in 20 μL of media (yielding initial OD600=0.01 bacterial cultures). All compounds were tested in dose-response with concentration ranges during the proliferation assays from 100 μM to 46 nM (3-fold dilution series). A second set of baseline control plates were prepared analogously, but without any bacteria added, to correct for possible compound absorbance and/or precipitation. […] Plates were then read at 600 nm using a Molecular Devices SpectraMax Plus384 microplate reader. […] Results presented represent the averages of EC50 values obtained from at least four replicates.
# (§4) Evaluating analogs for inhibiting the growth of E. coli and the ESKAPE bacteria. Analogs were initially tested for antibacterial efficacy against representative strains of antibiotic-sensitive E. coli and the ESKAPE bacteria. To determine compound efficacy, bacterial proliferation assays were carried out in liquid media culture supplemented with physiological concentrations of free calcium and magnesium cations. For these assays, bacterial cultures (OD600=0.01) were exposed to test compounds in 8-point, 3-fold dilution series (100 μM to 46 nM concentration range), in 384-well plates. After addition of compounds to cultures, the plates were sealed with Breathe-Easy gas permeable membranes and allowed to grow to mid-log phase (OD600˜0.4-0.6), whereupon final OD600 readings were taken to assess for bacterial growth and inhibition.
# E. coli GroEL/ES = target: T1, E. coli GroEL/ES (Escherichia coli, UniProt P0A6F5); assay: GroEL/ES-mediated dMDH refolding assay in the presence of E. coli NfsB nitroreductase; type: biochemical
# T1 construct: made in house; host or cells: GroEL in NEB 5-alpha E. coli; GroES in E. coli BL21 (DE3)
# Description: Evaluating compounds for inhibition in the GroEL/ES-mediated dMDH refolding assay and native MDH activity counter-screen in the presence of E. coli NfsB nitroreductase. These assays were performed nearly identically to those mentioned above, but with a couple distinct modifications. For both assays, 10 μg/mL of the E. coli NfsB nitroreductase enzyme (Sigma product #N9284) was added to the initial GroEL/ES-dMDH solution. For the GroEL/ES-dMDH refolding assay, after stamping with compounds, 10 μL of a 2.4 mM NADH solution was added, followed by a 10 minute incubation period at 37° C. to bioactivate the nitrofuran analogs. The remainder of the assay was conducted as in our standard protocol where no NfsB nitroreductase was present. […] For the native MDH activity counter-screen in the presence of E. coli NfsB nitroreductase, the assay was performed as described above for the GroEL/ES-dMDH refolding assay with NfsB; however, compound addition to the assay plates was conducted after the EDTA quench step, followed by a 10 minute incubation period at 37° C. to bioactivate the nitrofuran analogs. […] Results presented represent the averages of IC50 values obtained from at least four replicates in each assay.
# Evaluating analogs for inhibiting GroEL/ES-mediated substrate refolding functions in the presence of the E. coli NfsB type-1 nitroreductase. […] However, our standard GroEL/ES-mediated refolding assays and native substrate reporter counter-screens were conducted without nitroreductases present.
# [2] = system: Staphylococcus aureus strain Seattle 1945 (ATCC #25923); assay: bacterial proliferation assay, S. aureus; type: cell-based
# Description: as §1, §2, §3, §4
# [3] = Staphylococcus aureus, ATCC25923; read-out: Bacterial Proliferation EC50 S. aureus
# [4] = with E. coli NfsB nitroreductase, read-out: NfsB-GroEL/ES-dMDH Refolding IC50
# T1 sequence (P0A6F5 2-548): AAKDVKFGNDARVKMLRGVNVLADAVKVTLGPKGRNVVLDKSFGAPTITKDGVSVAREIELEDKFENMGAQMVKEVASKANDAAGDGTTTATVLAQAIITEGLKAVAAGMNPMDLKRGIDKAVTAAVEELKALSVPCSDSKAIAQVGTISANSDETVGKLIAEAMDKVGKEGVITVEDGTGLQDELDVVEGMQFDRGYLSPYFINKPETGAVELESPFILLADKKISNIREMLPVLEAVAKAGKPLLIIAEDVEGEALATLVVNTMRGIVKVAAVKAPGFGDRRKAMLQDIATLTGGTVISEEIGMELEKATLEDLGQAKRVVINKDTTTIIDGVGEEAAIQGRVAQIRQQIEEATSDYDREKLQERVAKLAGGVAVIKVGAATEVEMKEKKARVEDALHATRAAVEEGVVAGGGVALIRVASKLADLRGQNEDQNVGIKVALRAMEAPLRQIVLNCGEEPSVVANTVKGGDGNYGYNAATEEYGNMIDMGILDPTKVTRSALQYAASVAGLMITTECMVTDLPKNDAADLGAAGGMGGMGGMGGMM
smiles,measurement,setting,value
"COc1ccc(C(=O)N/N=C/c2cccc3ncccc23)cc1 [Compound 31, 4-methoxy-N′-(quinolin-5-ylmethylene)benzohydrazide]",EC50,[1],> 100 µM
same,IC50,E. coli GroEL/ES,> 83 µM
same,EC50,[2]; [3],> 100 µM
"O=C(N/N=C/c1ccc(O)c2ncccc12)c1ccccc1 [Compound 5, N′-((8-hydroxyquinolin-5-yl)methylene)benzohydrazide]",EC50,[1],56 µM
same,IC50,E. coli GroEL/ES,> 83 µM
same,EC50,[2]; [3],69 µM
"O=C(N/N=C/c1ccc(O)c2ncccc12)c1ccncc1 [Compound 6, N′-((8-hydroxyquinolin-5-yl)methylene)isonicotinohydrazide]",EC50,[1],> 100 µM
same,IC50,E. coli GroEL/ES,> 83 µM
same,EC50,[2]; [3],> 100 µM
"O=C1CN(/N=C/c2ccc(O)c3ncccc23)C(=O)N1 [Compound 2, 1-(((8-hydroxyquinolin-5-yl)methylene)amino)imidazolidine-2,4-dione]",EC50,[1],> 100 µM
same,IC50,E. coli GroEL/ES,> 83 µM
same,EC50,[2]; [3],37 µM
"O=C(N/N=C/c1ccc(O)c2ccccc12)c1ccccc1 [Compound 30, N′-((4-hydroxynaphthalen-1-yl)methylene)benzohydrazide]",EC50,[1],> 100 µM
same,IC50,E. coli GroEL/ES,> 83 µM
same,EC50,[2]; [3],88 µM
"O=C(N/N=C/c1cccc2ncccc12)c1ccccc1 [Compound 32, N′-(quinolin-5-ylmethylene)benzohydrazide]",EC50,[1],> 100 µM
same,IC50,E. coli GroEL/ES,> 83 µM
same,EC50,[2]; [3],> 100 µM
"O=C(N/N=C/c1ccc(O)c2ncccc12)c1cccc(Oc2ccccc2)c1 [Compound 11, N′-((8-hydroxyquinolin-5-yl)methylene)-3-phenoxybenzohydrazide]",EC50,[1],> 100 µM
same,IC50,E. coli GroEL/ES,21 µM
same,EC50,[2]; [3],> 100 µM
"COc1ccc(C(=O)N/N=C/c2ccccc2)cc1 [Compound 37, N′-benzylidene-4-methoxybenzohydrazide]",EC50,[1],> 100 µM
same,IC50,E. coli GroEL/ES,> 83 µM
same,EC50,[2]; [3],> 100 µM
"COc1ccc(C(=O)N/N=C/c2ccc(O)c3ccccc23)cc1 [Compound 29, N′-((4-hydroxynaphthalen-1-yl)methylene)-4-methoxybenzohydrazide]",EC50,[1],> 100 µM
same,IC50,E. coli GroEL/ES,> 83 µM
same,EC50,[2]; [3],> 100 µM
"O=C(N/N=C/c1ccc(O)c2ncccc12)c1ccc(NS(=O)(=O)c2ccc(Br)cc2)cc1 [Compound 14, 4-bromo-N-(4-(2-((8-hydroxyquinolin-5-yl)methylene)hydrazine-1-carbonyl)phenyl)benzenesulfonamide]",EC50,[1],84 µM
same,IC50,E. coli GroEL/ES,3.6 µM
same,EC50,"[2]; Staphylococcus aureus, ATCC25923, read-out: Bacterial Proliferation EC50 S. aureus",> 100 µM
"COc1ccc(C(=O)N/N=C/c2ccc(O)cc2)cc1 [Compound 35, N′-(4-hydroxybenzylidene)-4-methoxybenzohydrazide]",EC50,[1],> 100 µM
same,IC50,E. coli GroEL/ES,> 83 µM
same,EC50,[2]; [3],> 100 µM
"O=C(N/N=C/c1ccc(O)c2ncccc12)c1ccc(NS(=O)(=O)c2cccs2)cc1 [Compound 13, N-(4-(2-((8-hydroxyquinolin-5-yl)methylene)hydrazine-1-carbonyl)phenyl)thiophene-2-sulfonamide]",EC50,[1],> 100 µM
same,IC50,E. coli GroEL/ES,1.9 µM
same,EC50,[2]; [3],> 100 µM
"COc1ccc(C(=O)N/N=C/c2ccco2)cc1 [Compound 39, N′-(furan-2-ylmethylene)-4-methoxybenzohydrazide]",EC50,[1],> 100 µM
same,IC50,E. coli GroEL/ES,> 83 µM
same,EC50,[2]; [3],> 100 µM
"O=Cc1ccc(O)c2ncccc12 [Compound 40, reference compound]",EC50,[1],11 µM
same,IC50,E. coli GroEL/ES,> 83 µM
same,EC50,[2]; [3],19 µM
"O=C(N/N=C/c1cccc2ccccc12)c1ccccc1 [Compound 34, N′-(naphthalen-1-ylmethylene)benzohydrazide]",EC50,[1],> 100 µM
same,IC50,E. coli GroEL/ES,> 83 µM
same,EC50,[2]; [3],> 100 µM
"O=C(N/N=C/c1ccc([N+](=O)[O-])o1)c1ccncc1 [Compound 19, N′-((5-nitrofuran-2-yl)methylene)isonicotinohydrazide]",EC50,[1],54 µM
same,IC50,E. coli GroEL/ES; [4],23 µM
same,EC50,[2]; [3],9.5 µM
"O=C1CN(/N=C/c2ccc([N+](=O)[O-])o2)C(=O)N1 [Nitrofurantoin, reference compound]",EC50,[1],> 100 µM
same,GroEL/ES inhibition in words,E. coli GroEL/ES; in the presence of E. coli NfsB,weak to moderate GroEL/ES inhibitors
same,IC50,E. coli GroEL/ES; [4],84 µM
same,EC50,[2]; [3],27 µM
"COc1ccc(C(=O)N/N=C/c2cccc3ccccc23)cc1 [Compound 33, 4-methoxy-N′-(naphthalen-1-ylmethylene)benzohydrazide]",EC50,[1],> 100 µM
same,IC50,E. coli GroEL/ES,> 83 µM
same,EC50,[2]; [3],> 100 µM
"CCN(CC)S(=O)(=O)c1cccc(C(=O)N/N=C/c2ccc(O)c3ncccc23)c1 [Compound 12, N,N-diethyl-3-(2-((8-hydroxyquinolin-5-yl)methylene)hydrazine-1-carbonyl)benzenesulfonamide]",EC50,[1],> 100 µM
same,IC50,E. coli GroEL/ES,21 µM
same,EC50,[2]; [3],> 100 µM
